Source: patent US20190203240A1, “METHODS FOR THE PRODUCTION OF RHAMNOSYLATED FLAVONOIDS” (Universitaet Hamburg, priority 2016, published 2019)
“And” between values parts separate entries of the source, which are not always exact repeats. Equal values may be shown once.

Test system: VEGF
Assay: Stimulation of VEGF release in NHDF (ELISA)
Assay type: cell-based, human
Conditions: 72 hours, 1 μg/ml
Experimental: Tests were performed with normal human dermal fibroblast cultures at the 8th passage. Cells were grown in DMEM supplemented with glutamine at 2 mM, penicillin at 50 U/mL and streptomycin (50 μg/mL) and 10% of fetal calf serum (FCS) at 37° C. in a 5% CO2 atmosphere.
Fibroblasts were cultured for 24 hours before the cells were incubated with the test compounds for further 72 hours. After the incubation the culture supernatants were collected in order to measure the released quantities of procollagen I, VEGF, and fibronectin by means of ELISA. Reference test compounds were vitamin C (procollagen I), PMA (VEGF), and TGF-β (fibronectin).

CCCCCCCCCCCCCC(=O)O[C@@H]1[C@@H](C)[C@@]2(O)[C@@H](C=C(CO)C[C@]3(O)C(=O)C(C)=C[C@@H]23)[C@@H]2C(C)(C)[C@]12OC(C)=O [PMA]
Mean VEGF: 148 pg/mL
VEGF % Control: 205%
VEGF % Stimulation: 105%
VEGF (single values): 150 pg/mL and 143 pg/mL
